Experimental data published in the supplement of paper PMC10307832.

How the values were obtained:
Assay in all cases: relative viability (nuclei count vs DMSO), 5 days (fraction); higher = more cells survive
NCI-H1734 = test system: NCI-H1734
Outline: (§1)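 Relative viability divides the nuclei count in treated wells by that in vehicle wells. Lung cancer cell lines were seeded in 1536-well plates, dosed by pin tool the next day, and fixed and stained after 5 days in one step with final 0.05% Triton X-100, 1% formaldehyde and 1 ug/ml Hoechst. Dosing was a single drug or a fixed anchor-drug dose plus five library-drug doses (not always all listed) in √10 steps, and values are medians of duplicate plates imaged at 4×.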

SW 1573 = test system: SW 1573
Outline: as §1

NCI-H1650 = test system: NCI-H1650
Outline: as §1

NCI-H2342 = test system: NCI-H2342
Outline: as §1

PC-3 [JPC-3] = test system: PC-3 [JPC-3]
Outline: as §1

CAL-12T = test system: CAL-12T
Outline: as §1

NCI-H661 = test system: NCI-H661
Outline: as §1

NCI-H1563 = test system: NCI-H1563
Outline: as §1

COR-L23 = test system: COR-L23
Outline: as §1

HCC-827 = test system: HCC-827
Outline: as §1

ABC-1 = test system: ABC-1
Outline: as §1

LK-2 = test system: LK-2
Outline: as §1

NCI-H520 = test system: NCI-H520
Outline: as §1

NCI-H2405 = test system: NCI-H2405
Outline: as §1

PC-14 = test system: PC-14
Outline: as §1

NCI-H1355 = test system: NCI-H1355
Outline: as §1

EKVX = test system: EKVX
Outline: as §1

RERF-LC-KJ = test system: RERF-LC-KJ
Outline: as §1

H3255 = test system: H3255
Outline: as §1

NCI-H2228 = test system: NCI-H2228
Outline: as §1

NCI-H1437 = test system: NCI-H1437
Outline: as §1

HCC-15 = test system: HCC-15
Outline: as §1

NCI-H322M = test system: NCI-H322M
Outline: as §1

## O=C(O)c1ccc(-c2c[nH]c3ncc(-c4ccccc4)cc23)cc1C1CCCC1 + N=C(N)NC(=N)NCCc1ccccc1 [Phenformin] (partner 250 µM)
NCI-H1734; first compound 0.04 µM
  relative viability: 0.419
NCI-H1734; first compound 0.1265 µM
  relative viability: 0.452
NCI-H1734; first compound 0.4 µM
  relative viability: 0.371
NCI-H1734; first compound 1.265 µM
  relative viability: 0.358
SW 1573; first compound 0.04 µM
  relative viability: 0.38
SW 1573; first compound 0.1265 µM
  relative viability: 0.35
SW 1573; first compound 0.4 µM
  relative viability: 0.276
SW 1573; first compound 1.265 µM
  relative viability: 0.299
NCI-H1650; first compound 0.04 µM
  relative viability: 0.469
NCI-H1650; first compound 0.1265 µM
  relative viability: 0.472
NCI-H1650; first compound 0.4 µM
  relative viability: 0.338
NCI-H1650; first compound 1.265 µM
  relative viability: 0.2
NCI-H2342; first compound 0.04 µM
  relative viability: 0.512
NCI-H2342; first compound 0.1265 µM
  relative viability: 0.693
NCI-H2342; first compound 0.4 µM
  relative viability: 0.623
NCI-H2342; first compound 1.265 µM
  relative viability: 0.491
PC-3 [JPC-3]; first compound 0.04 µM
  relative viability: 0.475
PC-3 [JPC-3]; first compound 0.1265 µM
  relative viability: 0.501
PC-3 [JPC-3]; first compound 0.4 µM
  relative viability: 0.468
PC-3 [JPC-3]; first compound 1.265 µM
  relative viability: 0.436
CAL-12T; first compound 0.04 µM
  relative viability: 0.549
CAL-12T; first compound 0.1265 µM
  relative viability: 0.629
CAL-12T; first compound 0.4 µM
  relative viability: 0.579
CAL-12T; first compound 1.265 µM
  relative viability: 0.337
NCI-H661; first compound 0.04 µM
  relative viability: 0.292
NCI-H661; first compound 0.4 µM
  relative viability: 0.285
NCI-H661; first compound 1.265 µM
  relative viability: 0.278
NCI-H1563; first compound 0.04 µM
  relative viability: 0.679
NCI-H1563; first compound 0.1265 µM
  relative viability: 0.679
NCI-H1563; first compound 0.4 µM
  relative viability: 0.634
NCI-H1563; first compound 1.265 µM
  relative viability: 0.654
COR-L23; first compound 0.04 µM
  relative viability: 0.424
COR-L23; first compound 0.1265 µM
  relative viability: 0.507
COR-L23; first compound 0.4 µM
  relative viability: 0.437
COR-L23; first compound 1.265 µM
  relative viability: 0.268
HCC-827; first compound 0.04 µM
  relative viability: 0.406
HCC-827; first compound 0.1265 µM
  relative viability: 0.397
HCC-827; first compound 0.4 µM
  relative viability: 0.43
HCC-827; first compound 1.265 µM
  relative viability: 0.386
ABC-1; first compound 0.04 µM
  relative viability: 0.272
ABC-1; first compound 0.1265 µM
  relative viability: 0.232
ABC-1; first compound 0.4 µM
  relative viability: 0.229
ABC-1; first compound 1.265 µM
  relative viability: 0.181
LK-2; first compound 0.04 µM
  relative viability: 0.733
LK-2; first compound 0.1265 µM
  relative viability: 0.699
LK-2; first compound 0.4 µM
  relative viability: 0.377
LK-2; first compound 1.265 µM
  relative viability: 0.367
NCI-H520; first compound 0.04 µM
  relative viability: 0.583
NCI-H520; first compound 0.1265 µM
  relative viability: 0.82
NCI-H520; first compound 0.4 µM
  relative viability: 0.585
NCI-H520; first compound 1.265 µM
  relative viability: 0.594
NCI-H2405; first compound 0.04 µM
  relative viability: 0.445
NCI-H2405; first compound 0.1265 µM
  relative viability: 0.442
NCI-H2405; first compound 0.4 µM
  relative viability: 0.382
NCI-H2405; first compound 1.265 µM
  relative viability: 0.383
PC-14; first compound 0.04 µM
  relative viability: 0.588
PC-14; first compound 0.1265 µM
  relative viability: 0.678
PC-14; first compound 0.4 µM
  relative viability: 0.548
PC-14; first compound 1.265 µM
  relative viability: 0.604
NCI-H1355; first compound 0.04 µM
  relative viability: 0.446
NCI-H1355; first compound 0.1265 µM
  relative viability: 0.462
NCI-H1355; first compound 0.4 µM
  relative viability: 0.453
NCI-H1355; first compound 1.265 µM
  relative viability: 0.276
EKVX; first compound 0.04 µM
  relative viability: 0.249
EKVX; first compound 0.1265 µM
  relative viability: 0.225
EKVX; first compound 0.4 µM
  relative viability: 0.245
EKVX; first compound 1.265 µM
  relative viability: 0.219
RERF-LC-KJ; first compound 0.04 µM
  relative viability: 0.432
RERF-LC-KJ; first compound 0.1265 µM
  relative viability: 0.456
RERF-LC-KJ; first compound 0.4 µM
  relative viability: 0.389
RERF-LC-KJ; first compound 1.265 µM
  relative viability: 0.369
H3255; first compound 0.04 µM
  relative viability: 0.343
H3255; first compound 0.1265 µM
  relative viability: 0.354
H3255; first compound 0.4 µM
  relative viability: 0.39
H3255; first compound 1.265 µM
  relative viability: 0.372
NCI-H2228; first compound 0.04 µM
  relative viability: 0.37
NCI-H2228; first compound 0.1265 µM
  relative viability: 0.344
NCI-H2228; first compound 0.4 µM
  relative viability: 0.349
NCI-H2228; first compound 1.265 µM
  relative viability: 0.245
NCI-H1437; first compound 0.04 µM
  relative viability: 0.295
NCI-H1437; first compound 0.1265 µM
  relative viability: 0.298
NCI-H1437; first compound 0.4 µM
  relative viability: 0.319
NCI-H1437; first compound 1.265 µM
  relative viability: 0.202
HCC-15; first compound 0.04 µM
  relative viability: 0.514
HCC-15; first compound 0.1265 µM
  relative viability: 0.617
HCC-15; first compound 0.4 µM
  relative viability: 0.433
HCC-15; first compound 1.265 µM
  relative viability: 0.234
NCI-H322M; first compound 0.04 µM
  relative viability: 0.772
NCI-H322M; first compound 0.1265 µM
  relative viability: 0.832
NCI-H322M; first compound 0.4 µM
  relative viability: 0.782
NCI-H322M; first compound 1.265 µM
  relative viability: 0.63
